“And” between values parts separate entries of the source, which are not always exact repeats. Equal values may be shown once.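 Exposure lasted 48 hours, with cells grown in 96-well plates and compounds tested at five concentrations. Here, GI50 denotes the concentration required for 50% inhibition of growth. TGI denotes the concentration required for complete inhibition of growth.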
Tests used:
Experiment in all cases: DTP human tumour cell line panel, 48 h
SR leukemia = system: SR leukemia
OVCAR-3 ovarian = system: OVCAR-3 ovarian
EKVX NSCLC = system: EKVX NSCLC
UACC-62 melanoma = system: UACC-62 melanoma
K-562 leukemia = system: K-562 leukemia
HS 578T breast = system: HS 578T breast
OVCAR-5 ovarian = system: OVCAR-5 ovarian
CAKI-1 renal = system: CAKI-1 renal
UACC-257 melanoma = system: UACC-257 melanoma
IGROV1 ovarian = system: IGROV1 ovarian

SMILES | GI50 (SR leukemia) | TGI (SR leukemia) | GI50 (OVCAR-3 ovarian) | TGI (OVCAR-3 ovarian) [µM] | GI50 (EKVX NSCLC) | TGI (EKVX NSCLC) | GI50 (UACC-62 melanoma) | TGI (UACC-62 melanoma) | GI50 (K-562 leukemia) [nM] | TGI (K-562 leukemia) [µM] | GI50 (HS 578T breast) | TGI (HS 578T breast) | GI50 (OVCAR-5 ovarian) | TGI (OVCAR-5 ovarian) | GI50 (CAKI-1 renal) | TGI (CAKI-1 renal) | GI50 (UACC-257 melanoma) | TGI (UACC-257 melanoma) | GI50 (IGROV1 ovarian) | TGI (IGROV1 ovarian)
NC(=NCCCOc1ccc(Cl)cc1)Nc1ccc(Cl)cc1 | 2170 nM | 5.9 µM | 2840 nM | 8.09 | 3.87 µM | 13.3 µM | 1880 nM | 3.94 µM | 1850 | 4.32 | 3.39 µM | 14 µM | 2.02 µM | 6.56 µM | 2.77 µM | 9.11 µM | 1.91 µM | 3.84 µM | 2020 nM | 5.83 µM
O=C(OCc1ccccc1)N1CCN(/[N+]([O-])=N/Oc2ccc([N+](=O)[O-])cc2[N+](=O)[O-])CC1 | 4700 nM | > 100 µM | 3010 nM | 6.96 | 16.7 µM | 35 µM | 6720 nM | 20.8 µM | 4070 | > 100 | 32.4 µM | 97.6 µM | 6.43 µM | 67.6 µM | 4.8 µM | 15.9 µM | 19.5 µM | 36.5 µM | 2010 nM | 23.2 µM
NC(N)=NS(=O)(=O)c1ccc(NCc2c3ccccc3nc3ccccc23)cc1 |  | 12.6 µM |  | 49.6 |  | > 71.7 µM |  | 35.2 µM |  | > 93.6 |  | 28.6 µM |  | > 100 µM |  | 69.2 µM |  | > 69.3 µM |  | 65 µM
CCOC(=O)c1sc2nc3sc(N=Nc4ccc(Cl)cc4)c(O)n3c(=S)c2c1C | > 100000 nM | > 100 µM | 36700 nM | > 100 | 5.43 µM | 39.6 µM | 13000 nM | 32.5 µM | > 100000 | > 100 | 23.8 µM | 68.4 µM | 36.9 µM | > 100 µM | 28.1 µM | 57.3 µM | 23.4 µM | 60.6 µM | > 100000 nM | > 100 µM
ClC1=C(Cl)C(Cl)=C(Cl)C1=C/C=C/c1ccccc1 | 138 nM |  | 239 nM | 0.532 | 0.215 µM | 1.23 µM | 191 nM | 0.467 µM | 439 | > 100 | 0.208 µM | 0.685 µM | 0.338 µM | 0.968 µM | 0.198 µM | 0.561 µM | 0.184 µM | 0.41 µM |  | 0.0455 µM
NC(CSC(c1ccccc1)(c1ccccc1)c1ccc(Cl)cc1)C(=O)O (stereo unspecified) | 121 nM | 5.93 µM | 255 nM | 3.37 | 0.342 µM | > 33.9 µM | 180 nM | 21.6 µM | 209 | > 57.6 | 0.114 µM | 3.83 µM | 0.774 µM | > 63.9 µM | 0.37 µM |  | 3.87 µM | > 78.7 µM | 355 nM | 34.1 µM
CC1/C=C/C=C/C=C/C=C/C=C/C=C/C=C/C(O[C@@H]2O[C@H](C)[C@H](O)[C@@H](O)[C@@H]2N)CC(O)C(C(=O)O)C(O)CC(=O)CC(O)CC(O)CC(O)CC(=O)CCCC(=O)CC(=O)OC1C(C)CC(C)C(O)CC(=O)c1ccc(N)cc1 (stereo partly specified) | 83.5 nM and 168 nM | 0.254 µM and 0.422 µM | 63.1 nM and 374 nM |  | 0.0644 µM and 0.221 µM | 0.126 µM and 0.484 µM | 57.6 nM and 203 nM | 0.109 µM and 0.458 µM | 71.6 | 0.175 | 0.0765 µM and 0.329 µM | 0.211 µM and 1.58 µM | 0.0792 µM and 0.357 µM | 0.216 µM and 1.3 µM | 0.0583 µM and 0.186 µM | 0.107 µM and 0.357 µM | 0.0544 µM and 0.233 µM | 0.101 µM and 0.612 µM | 59.8 nM and 226 nM | 0.116 µM and 0.536 µM
OCCCN=NNc1ccc(-c2nc3ccccc3[nH]2)cc1 | 29900 nM | > 100 µM | 2310 nM | 5.13 | 15.5 µM | 52.6 µM | 17600 nM | 50.8 µM | 16600 | 84.9 | 4.54 µM | 21.9 µM | > 100 µM | > 100 µM | 15.4 µM | 39.3 µM | 10.4 µM | > 100 µM | 5260 nM | 45.8 µM
CC(C)C1OC(=O)C=C1Sc1ccccc1 (stereo unspecified) |  | > 100 µM |  | > 100 |  | > 100 µM |  | > 100 µM |  | > 100 |  | > 100 µM |  | > 100 µM |  | > 100 µM |  | > 100 µM |  | > 100 µM
C=C(C)[C@@H]1CC[C@]2(C)[C@H](C(=O)C=C3[C@@H]4C[C@](C)(C(=O)N5CCN(C)CC5)CC[C@]4(C)CC[C@]32C)[C@@]1(C)CCC#N | 1780 nM | 9.07 µM | 6330 nM | 13.2 | 7.24 µM | 14 µM | 6030 nM | 12.5 µM | 2750 | 9.55 | 7.99 µM | 20.9 µM | 7.01 µM | 13.6 µM | 6.27 µM | 12.5 µM | 6.39 µM | 13.9 µM | 6580 nM | 14.6 µM
CC(C)CCOc1ccc(-c2n[nH]c(C(F)(F)F)c2-c2cncc(C#N)c2)c(O)c1 | 2010 nM | 11.8 µM | 3170 nM | 16.3 | 2.28 µM | 13.2 µM | 1220 nM | 5.38 µM | 1870 | > 100 | 2.91 µM | 21.4 µM | 3.21 µM | > 100 µM | 3.17 µM | 13.6 µM | 1.69 µM | 5.54 µM | 3350 nM | > 100 µM
Cc1nc2sccn2c(=O)c1CCN1CCC(=C(c2ccc(F)cc2)c2ccc(F)cc2)CC1 | 551 nM | 26.7 µM | 12800 nM | 27.2 | 10.7 µM | 24.1 µM | 6730 nM | 20.5 µM | 5180 | 26.2 | 16.3 µM | 43.3 µM | 15.2 µM | 29.4 µM | 12.9 µM | 25.7 µM | 9.2 µM | 21.9 µM | 9960 nM | 26.4 µM

— PubChem BioAssay (NCI)
